# Measurements published in patent US20260132123A1, “ABAD INHIBITOR COMPOUNDS” (UNIVERSITY COURT OF THE UNIVERSITY OF ST ANDREWS, priority 2021, published 2026).
# Target: T1, 17β-HSD10 (Homo sapiens, UniProt Q99714)
# T1 construct: Histev (histidine tag with TEV site) (N, cleaved yes); made in house; host or cells: E. coli BL21-CodonPlus
# T1 sequence (Q99714 1-261): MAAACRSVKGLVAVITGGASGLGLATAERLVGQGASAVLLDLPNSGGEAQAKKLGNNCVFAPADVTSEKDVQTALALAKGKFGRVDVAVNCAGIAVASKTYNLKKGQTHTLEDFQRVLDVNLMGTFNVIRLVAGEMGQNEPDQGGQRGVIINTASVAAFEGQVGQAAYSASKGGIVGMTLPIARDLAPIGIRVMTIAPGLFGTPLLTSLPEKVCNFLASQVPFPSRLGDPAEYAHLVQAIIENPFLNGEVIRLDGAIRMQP
# Assay: 17β-HSD10 (ABAD) enzyme inhibition assay, NADH oxidation read at 340 nm (primary screen and dose response)
# Assay type: biochemical
# Details: for EC50 / Max. Effect (%) / Hill Slope / Max. Fit / Min. Fit: recombinant 17βHSD10 enzyme assay; for Hill Slope / Max. Fit / Min. Fit: curve fit
# Protocol: Cell pellets of E. coli BL21-CodonPlus cells containing Histev-17β-HSD10 protein were re-suspended for 30 min, 4° C., in lysis buffer (20 mM NaH2PO4, 30 mM imidazole, 500 mM NaCl, 10% (v/v) glycerol, pH 7.5) with the addition of complete ethylenediaminetetraacetic acid (EDTA)-free protease inhibitor tablets (Roche), lysozyme (1 mg/mL), deoxyribonuclease (DNase) (20 μg/mL) and Triton X-100 (0.1% (v/v)). Cells were lysed by passage through a cell disruptor at 30 kPSI (Constant Systems Ltd) and the lysate was cleared by centrifugation (Sorvall Evolution RC, rotor S5-34 55-34 angle, 20500 rpm, 30 min, 4° C.). Cleared lysate was filtered (0.45 μm membrane; Whatman) then applied to a Ni-nitrilotriacetic acid (NTA) (GE Healthcare) column pre-washed with lysis buffer and protein eluted with 300 mM imidazole buffer (20 mM NaH2PO4, 300 mM imidazole, 500 mM NaCl, 10% (v/v) glycerol, pH 7.5). […] Protein digestion and dialysis was carried out at 4° C. for 16 h.
# Complete digestion was firstly checked by sodium dodecyl sulfate-polyacrylamide gel electrophoresis (SDS-PAGE), then fully digested protein was passed over a second Ni-column and the flow-through, containing 17β-HSD10 protein, was concentrated using a Vivaspin column (10 kDa MWCO, GE Healthcare) to ˜7 mL before final purification using gel filtration to remove imidazole (Hi-Load 16/60 Superdex 75 prep grade column, GE Healthcare, flow rate 1.5 mL/min). Protein was eluted in gel filtration buffer (10 mM trisaminomethane (Tris-HCl), 150 mM NaCl, 10% glycerol, pH 7.5) and concentrated (Vivaspin column (10 kDa molecular weight cut off (MWCO), GE Healthcare)) to 10 mg/mL. Aliquots (10 μL) were taken and flash frozen in liquid nitrogen before final storage at −80° C.
# The assay buffer used contains: 10 mM Tris. HCl (pH 7.4), 150 mM NaCl, 1 mM DTT, 0.005% Tween (polysorbate 20) and 0.01% bovine serum albumin (BSA). As indicated for some experiments the assay buffer was supplemented with 100 units/ml bovine liver catalase. All experiments were conducted in clear bottom 384-well or 1536-well low volume microplates (Corning) with a final assay volume of 20 μL and the reaction progress was monitored by oxidation of NADH as determined by reduction in absorbance at 340 nm read on the EnVision plate reader (PerkinElmer).
# For primary screening an endpoint assay format was adopted in which an Echo acoustic liquid dispenser (Labcyte) was used to transfer 20 nL of either reference standard, dimethylsulfoxide (DMSO) control ([…] final assay concentration (FAC)) or test compounds (10 μM FAC) to the assay plate. 10 μL of 17β-HSD10 enzyme in assay buffer (2.5 nM, FAC) was then added to the plates using the Preddator liquid handling robot (Redd and Whyte) and plates were incubated at room temperature for 15 minutes. 10 μL of substrate mixture (100 μM acetoacetyl-CoA and 100 μM NADH, FAC) was added with the Preddator. To start the reaction and the plates were left to incubate for 35 minutes at room temperature before the absorbance at 340 nm was read on the EnVision plate reader (PerkinElmer). For kinetic assay format and dose response follow up experiments the same protocol was adopted but the absorbance at 340 nm was monitored constantly for 45 minutes from immediately after the reaction was started.
SMILES,"ABAD plC50 (primary screening, resynthesized HTS hit compounds)",EC50 [nM],Max. Effect (%),Hill Slope,Max. Fit,Min. Fit
"Cc1ccc(C(=O)N(CC(C)C)c2cccc(N(C)Cc3cnc[nH]3)c2)cc1 [ESC1002032, N-[3-[1H-imidazol-5-ylmethyl(methyl)amino]phenyl]-N-isobutyl-4-methyl-benzamide]",6.6,251,99,0.9,99,0
CC(C)CN(C(=O)c1ccccc1F)c1cccc(N(C)Cc2c[nH]c(C3CC3)n2)c1 [ESC1002674],–,8320,59,1.2,80,−5
COc1cccc(-c2ccccc2[C@H]2CCCN2Cc2ccccc2)c1 [ESC1002504],–,> 20000,−6,–,–,–
CC(C)CN(C(=O)c1ccccc1S(C)(=O)=O)c1cccc(N(C)Cc2c[nH]cn2)c1 [ESC1002622],–,6920,76,0.9,108,−6
"CN(Cc1cnc[nH]1)c1cccc(NC(=O)c2ccccc2F)c1 [ESC1002056, 2-fluoro-N-[3-[1H-imidazol-5-ylmethyl(methyl)amino]phenyl]benzamide]",–,> 20000,4,–,–,–
"CN(Cc1c[nH]cn1)c1cccc(N(CC(C)(C)C)C(=O)c2ccccc2F)c1 [ESC1002517, N-(2,2-dimethylpropyl)-2-fluoro-N-[3-[1H-imidazol-4-ylmethyl(methyl)amino]phenyl]benzamide]",–,2000,92,0.87,106,−1
"O=C(c1sccc1Cl)N1CCC[C@H]1c1ccccc1-c1cccc(O)c1F (single isomer, unassigned) [ESC1002841]",–,> 20000,27,–,–,–
CC(C)CN(CC(C)C)c1cccc(N(C)Cc2cnc[nH]2)c1 [ESC1002025],–,> 20000,15,–,–,–
COc1ccc(C(=O)N(CC(C)C)c2cccc(N(C)Cc3c[nH]cn3)c2)c(F)c1 [ESC1002576],–,245,98,1.1,97,−3
"O=C(c1sccc1Cl)N1CCC[C@H]1c1ccccc1-c1cccc(O)c1F (single isomer, unassigned) [ESC1002840]",–,170,98,1.1,97,−4
"COc1cccc(-c2ccccc2[C@@H]2CCCN2C(=O)c2sccc2C)c1 (single isomer, unassigned) [ESC1002421]",–,186,97,1.6,95,11
"O=C(c1ncc[nH]1)N1CCC[C@H]1c1ccccc1 [S1−T2, 2-{[(2S)-2-phenylpyrrolidin-1-yl]carbonyl}-1H-imidazole]",–,> 20000,6.4,–,–,–
"CC(C)CN(C(=O)c1ccccc1Cl)c1cccc(N(C)Cc2c[nH]cn2)c1 [ESC1002457, 2-chloro-N-[3-[1H-imidazol-4-ylmethyl(methyl)amino]phenyl]-N-isobutyl-benzamide]",–,447,95,1.4,94,−4
"O=C(c1[nH]ncc1Cl)N1CCC[C@H]1c1ccccn1 [S1−T17, 2-[(2S)-1-[(4-chloro-1H-pyrazol-5-yl)carbonyl]pyrrolidin-2-yl]pyridine]",–,> 20000,17.5,–,–,–
"CCN(C(=O)c1cccc(F)c1)c1cccc(N(C)Cc2cnc[nH]2)c1 [S2−T5, N-ethyl-3-fluoro-N-[3-[1H-imidazol-5-ylmethyl(methyl)amino]phenyl]benzamide]",–,> 20000,18.4,–,–,–
Cc1ccsc1C(=O)N1CCC[C@@H]1c1ccccc1-c1c[nH]nc1C(F)(F)F [ESC1002465],–,1510,87,1.2,90,−2
COc1cccc(-c2ccccc2[C@H]2CCCN2C(=O)c2cc(C)cs2)c1 [ESC1002428],–,> 20000,16,–,–,–
COc1cccc(-c2ccccc2[C@@H]2CCCN2C(=O)c2ncc[nH]2)c1 (racemic) [ESC1002600],–,4370,75,1.2,86,1
CC(C)CN(C(=O)c1ccccc1F)c1cccc(N(C)Cc2cn[nH]c2I)c1 [ESC1002687],–,11000,64,1,100,−6
CC(C)CN(C(=O)c1ccccc1F)c1cccc(N(C)CC#N)c1 [ESC1002762],–,> 20000,39,–,–,–
Cc1ccsc1C(=O)N1CCC[C@@H]1c1ccccc1-c1cnn(C)c1 [ESC1002424],–,933,96,1.3,96,2
CC(C)CN(C(=O)c1ccccc1F)c1cccc(-n2ccnc2)c1 [ESC1002765],–,> 20000,−2,–,–,–
"Cc1ccc(C(=O)N(CC2CC2)c2cccc(N(C)Cc3c[nH]cn3)c2)cc1 [ESC1002399, N-(cyclopropylmethyl)-N-[3-[1H-imidazol-4-ylmethyl(methyl)amino]phenyl]-4-methyl-benzamide]",–,1000,95,1.1,99,2
"CC(C)CN(C(=O)c1ccc(F)cc1F)c1cccc(N(C)Cc2c[nH]cn2)c1 [ESC1002454, 2,4-difluoro-N-[3-[1H-imidazol-4-ylmethyl(methyl)amino]phenyl]-N-isobutyl-benzamide]",–,457,96,1.1,97,−8
COc1cccc(-c2ccccc2[C@@H]2CCCN2C(=O)c2[nH]ncc2Cl)c1 (racemic) [ESC1002626],–,457,95,1.6,91,−1
